# From patent US20230092769A1 (SHANGHAI BENEMAE PHARMACEUTICAL CORPORATION, priority 2020, published 2023)
# “And” between values parts separate entries of the source, which are not always exact repeats. Equal values may be shown once.
# Experiments:
# Format in all cases: in vivo
# [1] = system: STZ-induced diabetic C57BL/6 mice; experiment: Fasting blood glucose on Day 28 after 6 hours fasting, STZ-induced diabetic C57BL/6 mice; settings: Day 28, 6 hours fasting, IGlar 5 U/kg multiple dosing
# Experimental: After one-week acclimation, the mice were fed with high fat diet with 60 kcal % fat (D12492, Research Diets) for 3 weeks before STZ injection. Diabetic model was induced with 5 consecutive days of multiple low-dose STZ injection (50 mg/kg, intraperitoneally; i.p.). During modeling period, the mice were fasted for 4 hours before STZ treatment each day. The STZ solution (5 mg/ml) was freshly prepared in 0.1 M sodium citrate buffer (pH 4.5) before use and injected within 10 minutes of preparation. Seven days later, the mice with non-fasted blood glucose between 16.7 mM and 27.7 mM were selected and randomized into different groups by blood glucose level and body weight. At 9 am (T=0 minute) of Day 1, the mice were subcutaneously administrated with vehicle, insulin glargine, beinaglutide, or a mixture of insulin glargine and beinaglutide, which were mixed immediately before injection (Table 3). After first injection, tail blood glucose levels were measured at various intervals after injection, at 15 minutes, 30 minutes, 60 minutes, 120 minutes, 180 minutes, and 240 minutes, respectively. […] Body weight was measured twice per week. […] The blood glucose was monitored at 0 minute (pre-glucose loading), 15 minutes, 30 minutes, 60 minutes and 120 minutes after glucose loading.
# On Day 28, the fasting blood glucose was measured after 6 hours fasting.
# [2] = system: STZ-induced diabetic C57BL/6 mice; experiment: Oral glucose tolerance test (OGTT) on Day 28, STZ-induced diabetic C57BL/6 mice; design: OGTT blood glucose AUC: unit: mM·min
# Experimental: The mice fasted for about 6 hours were orally administrated with glucose solution (1 g/kg). Blood glucose was measured at indicated time points.
# (§1) After one-week acclimation, the mice were fed with high fat diet with 60 kcal % fat (D12492, Research Diets) for 3 weeks before STZ injection. Diabetic model was induced with 5 consecutive days of multiple low-dose STZ injection (50 mg/kg, intraperitoneally; i.p.). During modeling period, the mice were fasted for 4 hours before STZ treatment each day. The STZ solution (5 mg/ml) was freshly prepared in 0.1 M sodium citrate buffer (pH 4.5) before use and injected within 10 minutes of preparation. Seven days later, the mice with non-fasted blood glucose between 16.7 mM and 27.7 mM were selected and randomized into different groups by blood glucose level and body weight. At 9 am (T=0 minute) of Day 1, the mice were subcutaneously administrated with vehicle, insulin glargine, beinaglutide, or a mixture of insulin glargine and beinaglutide, which were mixed immediately before injection (Table 3). After first injection, tail blood glucose levels were measured at various intervals after injection, at 15 minutes, 30 minutes, 60 minutes, 120 minutes, 180 minutes, and 240 minutes, respectively. Subsequently, the mice of four groups (No. 1, No. 2, No. 4, and No. 6) continued to receive multiple dosing for 4 weeks. Body weight was measured twice per week. On day 28, after blood glucose measurement, the mice were fasted for 6 hours from 9 am, followed by an oral glucose tolerance test (glucose solution: 1 g/kg, 10 ml/kg). The blood glucose was monitored at 0 minute (pre-glucose loading), 15 minutes, 30 minutes, 60 minutes and 120 minutes after glucose loading.
# [3] = Body weight change during 4-week multiple dosing in STZ-induced diabetic C57BL/6 mice; settings: for body weight change Day 0 / body weight change Day 4 / body weight change Day 7 / body weight change Day 8 / body weight change Day 10 / body weight change Day 12 / body weight change Day 14 / body weight change Day 16 / body weight change Day 18 / body weight change Day 20 / body weight change Day 22 / body weight change Day 24 / body weight change Day 26 / body weight change Day 28: IGlar 5 U/kg s.c., 1st week bid, 2nd to 4th week tid; for body weight change Day 0: baseline
# Experimental: as §1
# [4] = system: STZ-induced diabetic C57BL/6 mice; experiment: Blood glucose after single dosing in STZ-induced diabetic C57BL/6 mice (Example 2); settings: for blood glucose 15 min / blood glucose 30 min / blood glucose 60 min / blood glucose 120 min / blood glucose 180 min / blood glucose 240 min / AUC(0-120 min) of blood glucose / blood glucose 0 min: single s.c. dose; for blood glucose 0 min: pre-dose
# Experimental: Animals: Male C57BL/6 mice (n=70) were purchased from Shanghai Jihui Laboratory Animal Care Co., Ltd. Upon arrival, the mice were housed in an animal facility at Shanghai University of Medicine & Health Sciences, under constant temperature (20-24° C.) and humidity (40-70%). Housing was provided at 12:12-hour light-dark cycle.
# Active agents: Insulin glargine was obtained from Sanofi and stored at a temperature of 2-8° C. Beinaglutide having the sequence of […](SEQ ID NO: 1) was obtained from Benemae (beinaglutide injection, 2 mg/mL) and stored at 2-8° C.
# as §1
# [5] = Insulin glargine 5 U/kg, group MEAN, n=6
# [6] = Insulin glargine 5 U/kg, group MEAN, n=6, listed as IGlar
# [7] = Insulin glargine 5 U/kg, individual animal
# [8] = Insulin glargine 10 U/kg, group MEAN, n=6
# [9] = Insulin glargine 10 U/kg, group MEAN, n=6, listed as IGlar
# [10] = Insulin glargine 10 U/kg, individual animal
substance,measurement,setting,value
insulin glargine,"fasting blood glucose, Mean",[1]; group mean,14.0 ± 2.43 mM and 14.0 mM
same,fasting blood glucose,[1]; individual animal,16.1 mM and 9.4 mM and 7.6 mM and 15.9 mM and 20.9 mM
same,blood glucose based on the AUC during OGTT (in words),"[2]; Day 28, glucose 1 g/kg oral, Bei 0.1 mg/kg, IGlar 5 U/kg, or IGlar 5 U/kg & Bei 0.05 mg/kg multiple dosing",significantly reduced blood glucose based on the AUC
same,"OGTT blood glucose 0 min, MEAN","[2]; IGlar 5 U/kg, Day 28, group mean, 0 min",13.98 mM
same,"OGTT blood glucose AUC, MEAN","[2]; IGlar 5 U/kg, Day 28, group mean, 0-120 min",2390.25
same,"OGTT blood glucose 15 min, MEAN","[2]; IGlar 5 U/kg, Day 28, group mean, 15 min",27.90 mM
same,"OGTT blood glucose 30 min, MEAN","[2]; IGlar 5 U/kg, Day 28, group mean, 30 min",24.60 mM
same,"OGTT blood glucose 60 min, MEAN","[2]; IGlar 5 U/kg, Day 28, group mean, 60 min",20.04 mM
same,"OGTT blood glucose 120 min, MEAN","[2]; IGlar 5 U/kg, Day 28, group mean, 120 min",13.72 mM
same,OGTT blood glucose 0 min,"[2]; IGlar 5 U/kg, Day 28, individual animals, 0 min",16.1 mM and 9.4 mM and 7.6 mM and 15.9 mM and 20.9 mM
same,OGTT blood glucose AUC,"[2]; IGlar 5 U/kg, Day 28, individual animals, 0-120 min",2820.0 and 2205.0 and 2178.8 and 2133.0 and 2614.5
same,OGTT blood glucose 15 min,"[2]; IGlar 5 U/kg, Day 28, individual animals, 15 min",33.3 mM and 25.4 mM and 24 mM and 25.9 mM and 30.9 mM
same,OGTT blood glucose 30 min,"[2]; IGlar 5 U/kg, Day 28, individual animals, 30 min",27.9 mM and 23.4 mM and 23.1 mM and 23.3 mM and 25.3 mM
same,OGTT blood glucose 60 min,"[2]; IGlar 5 U/kg, Day 28, individual animals, 60 min",23 mM and 18.6 mM and 19 mM and 16.4 mM and 23.2 mM
same,OGTT blood glucose 120 min,"[2]; IGlar 5 U/kg, Day 28, individual animals, 120 min",17.9 mM and 13 mM and 12.9 mM and 12.1 mM and 12.7 mM
same,body weight change Day 0,[3]; group MEAN,0.0 g
same,body weight change Day 0,[3]; individual animal,0.0 g
same,body weight change Day 4,[3]; group MEAN,0.0 g
same,body weight change Day 7,[3]; group MEAN,0.7 g
same,body weight change Day 8,[3]; group MEAN,0.7 g
same,body weight change Day 10,[3]; group MEAN,0.8 g
same,body weight change Day 12,[3]; group MEAN,0.7 g
same,body weight change Day 14,[3]; group MEAN,1.2 g
same,body weight change Day 16,[3]; group MEAN,1.3 g
same,body weight change Day 18,[3]; group MEAN,1.6 g
same,body weight change Day 20,[3]; group MEAN,1.7 g
same,body weight change Day 22,[3]; group MEAN,1.7 g
same,body weight change Day 24,[3]; group MEAN,1.8 g
same,body weight change Day 26,[3]; group MEAN,2.4 g
same,body weight change Day 28,[3]; group MEAN,2.4 ± 0.4 g and 2.4 g
same,body weight change Day 4,[3]; individual animal,-0.2 g and 0.0 g and 0.6 g and -0.1 g and 0.3 g and -0.4 g
same,body weight change Day 7,[3]; individual animal,0.2 g and 0.7 g and 1.0 g (2×) and 0.8 g and 0.5 g
same,body weight change Day 8,[3]; individual animal,0.0 g and 1.1 g and 0.6 g and 0.7 g and 1.3 g and 0.4 g
same,body weight change Day 10,[3]; individual animal,0.1 g and 1.0 g (2×) and 0.7 g and 1.1 g and 0.8 g
same,body weight change Day 12,[3]; individual animal,0.2 g and 0.9 g and 0.4 g and 0.8 g and 1.3 g and 0.6 g
same,body weight change Day 14,[3]; individual animal,0.3 g and 1.3 g and 0.8 g (2×) and 2.0 g and 1.9 g
same,body weight change Day 16,[3]; individual animal,0.7 g and 1.3 g and 1.7 g (2×) and 1.0 g
same,body weight change Day 18,[3]; individual animal,0.9 g and 1.2 g and 2.4 g (2×) and 1.3 g
same,body weight change Day 20,[3]; individual animal,1.0 g (2×) and 1.9 g and 2.3 g and 2.5 g
same,body weight change Day 22,[3]; individual animal,1.2 g and 1.7 g and 2.1 g and 2.6 g and 1.0 g
same,body weight change Day 24,[3]; individual animal,1.3 g and 1.9 g and 2.3 g and 2.7 g and 0.6 g
same,body weight change Day 26,[3]; individual animal,1.5 g and 2.2 g and 3.3 g and 3.7 g and 1.2 g
same,body weight change Day 28,[3]; individual animal,1.7 g and 2.3 g and 2.9 g and 3.8 g and 1.4 g
same,"weight gain on Day 28, IGlar alone vs combo (in words)","[3]; IGlar 5 U/kg vs IGlar 5 U/kg & Bei 0.05 mg/kg, 4-week treatment",induced weight gain significantly higher than the combinational therapy of beinaglutide and insulin glargine
same,blood glucose 15 min,[4]; [5],25.35 mM
same,blood glucose 30 min,[4]; [5],16.95 mM
same,blood glucose 60 min,[4]; [5],6.07 mM
same,blood glucose 120 min,[4]; [5],7.02 mM
same,blood glucose 180 min,[4]; [5],11.80 mM
same,blood glucose 240 min,[4]; [5],18.83 mM
same,AUC(0-120 min) of blood glucose,"[4]; Insulin glargine 5 U/kg, group MEAN, n=6, in mM·min (unit assumed)",2864
same,AUC(0-120 min) of blood glucose,[4]; [6],significant reduction of blood glucose
same,blood glucose 60 min,[4]; [6],6.07 ± 0.43 mM
same,blood glucose 15 min,[4]; [7],23.4 mM and 25.7 mM and 26.6 mM and 24.1 mM and 26.3 mM and 26 mM
same,blood glucose 30 min,[4]; [7],19.7 mM and 8.7 mM and 17.9 mM and 16.6 mM and 21.2 mM and 17.6 mM
same,blood glucose 60 min,[4]; [7],6.4 mM and 6.2 mM and 5.9 mM (2×) and 5.4 mM and 6.6 mM
same,blood glucose 120 min,[4]; [7],5.6 mM and 7.5 mM and 12.2 mM and 4.4 mM and 7.8 mM and 4.6 mM
same,blood glucose 180 min,[4]; [7],10.8 mM and 14.1 mM and 17.2 mM and 8.9 mM and 11.5 mM and 8.3 mM
same,blood glucose 240 min,[4]; [7],18.8 mM and 23.2 mM and 23.5 mM and 16.7 mM and 17.7 mM and 13.1 mM
same,AUC(0-120 min) of blood glucose,"[4]; Insulin glargine 5 U/kg, individual animal, in mM·min (unit assumed)",2864 and 3072 and 3731 and 2489 and 3047 and 2409
same,blood glucose 0 min,[4]; [5],27.55 mM
same,blood glucose 0 min,[4]; [7],31.1 mM and 29.3 mM and 25.9 mM and 28.3 mM and 25.3 mM and 25.4 mM
same,blood glucose 15 min,[4]; [8],26.68 mM
same,blood glucose 30 min,[4]; [8],14.68 mM
same,blood glucose 60 min,[4]; [8],7.65 mM
same,blood glucose 120 min,[4]; [8],5.50 mM
same,blood glucose 180 min,[4]; [8],9.95 mM
same,blood glucose 240 min,[4]; [8],20.18 mM
same,AUC(0-120 min) of blood glucose,"[4]; Insulin glargine 10 U/kg, group MEAN, n=6, in mM·min (unit assumed)",3986
same,AUC(0-120 min) of blood glucose,[4]; [9],significant reduction of blood glucose
same,blood glucose 120 min,[4]; [9],5.50 ± 2.74 mM
same,blood glucose 180 min,[4]; [9],9.95 ± 5.22 mM
same,blood glucose 15 min,[4]; [10],24.4 mM (2×) and 23.6 mM and 30.3 mM and 29 mM and 28.4 mM
same,blood glucose 30 min,[4]; [10],17.3 mM and 10.6 mM and 3.1 mM and 11.1 mM and 26.1 mM and 19.9 mM
same,blood glucose 60 min,[4]; [10],9.6 mM and 5 mM and 7 mM and 5.2 mM and 13.3 mM and 5.8 mM
same,blood glucose 120 min,[4]; [10],10.8 mM and 4.2 mM and 5.4 mM and 3 mM and 5.3 mM and 4.3 mM
same,blood glucose 180 min,[4]; [10],19.3 mM and 9.4 mM and 6.1 mM and 5.8 mM and 6.7 mM and 12.4 mM
same,blood glucose 240 min,[4]; [10],26.4 mM and 16.1 mM and 15.4 mM and 14.3 mM and 19.3 mM and 29.6 mM
same,AUC(0-120 min) of blood glucose,"[4]; Insulin glargine 10 U/kg, individual animal, in mM·min (unit assumed)",3986 and 2308 and 2209 and 1991 and 3146 and 3254
same,blood glucose 0 min,[4]; [8],27.77 mM
same,blood glucose 0 min,[4]; [10],26.7 mM and 25.5 mM and 29 mM and 24.6 mM and 30.2 mM and 30.6 mM
same,blood glucose after a single administration (in words),"[4]; STZ-induced hyperglycemic mice, single s.c. administration",significantly reduced blood glucose
